Results published in PubChem BioAssay AID2060904 (Molecular Pharmacology Branch, DTP, NCI, 2025).

Tested on: 349418-098-R-PDC complex spheroid viability
Test: Anticancer human tumor 349418-098-R-PDC patient-derived lung adenocarcinoma cell line growth inhibition [RAS]
Settings: for IC50: curve of first compound; for viability, T/C: stronger effect = lower value
Summary of the method: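 Tumour cells grown as complex spheroids with HUVEC endothelial cells and mesenchymal stem cells, treated with RAS pathway inhibitor combinations. Each agent spans half-log steps from near clinical Cmax, or 10 microM where Cmax is unknown.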

[1] = second compound 0.000949 µM, first compound 0.0316 µM
[2] = second compound 0.000949 µM, first compound 0.1 µM
[3] = second compound 0.000949 µM, first compound 0.316 µM
[4] = second compound 0.000949 µM, first compound 1 µM
[5] = second compound 0.003 µM, first compound 0.0316 µM
[6] = second compound 0.003 µM, first compound 0.1 µM
[7] = second compound 0.003 µM, first compound 0.316 µM
[8] = second compound 0.003 µM, first compound 1 µM
[9] = second compound 0.00949 µM, first compound 0.0316 µM
[10] = second compound 0.00949 µM, first compound 0.1 µM
[11] = second compound 0.00949 µM, first compound 0.316 µM
[12] = second compound 0.00949 µM, first compound 1 µM
[13] = second compound 0.03 µM, first compound 0.0316 µM
[14] = second compound 0.03 µM, first compound 0.1 µM
[15] = second compound 0.03 µM, first compound 0.316 µM
[16] = second compound 0.03 µM, first compound 1 µM
[17] = second compound 0.0949 µM, first compound 0.0316 µM
[18] = second compound 0.0949 µM, first compound 0.1 µM
[19] = second compound 0.0949 µM, first compound 0.316 µM
[20] = second compound 0.0949 µM, first compound 1 µM
[21] = second compound 0.3 µM, first compound 0.0316 µM
[22] = second compound 0.3 µM, first compound 0.1 µM
[23] = second compound 0.3 µM, first compound 0.316 µM
[24] = second compound 0.3 µM, first compound 1 µM
[25] = second compound 0.000949 µM, first compound 0.00316 µM
[26] = second compound 0.000949 µM, first compound 0.01 µM
[27] = second compound 0.003 µM, first compound 0.00316 µM
[28] = second compound 0.003 µM, first compound 0.01 µM
[29] = second compound 0.00949 µM, first compound 0.00316 µM
[30] = second compound 0.00949 µM, first compound 0.01 µM
[31] = second compound 0.03 µM, first compound 0.00316 µM
[32] = second compound 0.03 µM, first compound 0.01 µM
[33] = second compound 0.0949 µM, first compound 0.00316 µM
[34] = second compound 0.0949 µM, first compound 0.01 µM
[35] = second compound 0.3 µM, first compound 0.00316 µM
[36] = second compound 0.3 µM, first compound 0.01 µM
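Note: spheroids exposed to compound for seven days before viability readout.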

Structure (SMILES): CC(=O)OC12COC1CC(O)C1(C)C(=O)C(O)C3=C(C)C(OC(=O)C(O)C(NC(=O)OC(C)(C)C)c4ccccc4)CC(O)(C(OC(=O)c4ccccc4)C21)C3(C)C (stereo not drawn) + CCn1c(-c2cccnc2C(C)OC)c2c3cc(ccc31)N1CCOC(CC(NC(=O)C(C(C)C)N(C)C(=O)C3(F)CCN(C(=O)C#CC(C)(C)N(C)C)CC3)C(=O)N3CCCC(N3)C(=O)OCC(C)(C)C2)C1
- IC50 (second compound 0.000949 µM): < 31.6 nM
- IC50 (second compound 0.003 µM): < 31.6 nM
- IC50 (second compound 0.00949 µM): < 31.6 nM
- IC50 (second compound 0.03 µM): < 31.6 nM
- IC50 (second compound 0.0949 µM): < 31.6 nM
- IC50 (second compound 0.3 µM): < 31.6 nM
- viability, T/C [1]: 13.4%
- viability, T/C [2]: 13%
- viability, T/C [3]: 15.4%
- viability, T/C [4]: 16.4%
- viability, T/C (second compound 0.000949 µM, first compound 3.16 µM): 15.6%
- viability, T/C (second compound 0.000949 µM, first compound 10 µM): 17.3%
- viability, T/C [5]: 13.8%
- viability, T/C [6]: 13.9%
- viability, T/C [7]: 10.9%
- viability, T/C [8]: 13.8%
- viability, T/C (second compound 0.003 µM, first compound 3.16 µM): 16.8%
- viability, T/C (second compound 0.003 µM, first compound 10 µM): 16.9%
- viability, T/C [9]: 13.2%
- viability, T/C [10]: 13.6%
- viability, T/C [11]: 10.2%
- viability, T/C [12]: 13.5%
- viability, T/C (second compound 0.00949 µM, first compound 3.16 µM): 17.4%
- viability, T/C (second compound 0.00949 µM, first compound 10 µM): 15.9%
- viability, T/C [13]: 12.6%
- viability, T/C [14]: 13.3%
- viability, T/C [15]: 16.2%
- viability, T/C [16]: 16.2%
- viability, T/C (second compound 0.03 µM, first compound 3.16 µM): 17.4%
- viability, T/C (second compound 0.03 µM, first compound 10 µM): 12.6%
- viability, T/C [17]: 12.2%
- viability, T/C [18]: 13.3%
- viability, T/C [19]: 15.7%
- viability, T/C [20]: 15.9%
- viability, T/C (second compound 0.0949 µM, first compound 3.16 µM): 16.9%
- viability, T/C (second compound 0.0949 µM, first compound 10 µM): 16.8%
- viability, T/C [21]: 13%
- viability, T/C [22]: 13.2%
- viability, T/C [23]: 14.7%
- viability, T/C [24]: 15%
- viability, T/C (second compound 0.3 µM, first compound 3.16 µM): 19.1%
- viability, T/C (second compound 0.3 µM, first compound 10 µM): 21.1%

Structure (SMILES): C=CC(=O)N1CCN(c2nc(OCC3CCCN3C)nc3c(F)c(-c4nc(N)cc(C)c4C(F)(F)F)c(Cl)cc23)C(C)C1 (stereo not drawn) + CCn1c(-c2cc(N3CCN(C)CC3)cnc2C(C)OC)c2c3cc(ccc31)-c1csc(n1)CC(NC(=O)C1CC1C)C(=O)N1CCCC(N1)C(=O)OCC(C)(C)C2
- IC50 (second compound 0.000949 µM): > 1000 nM
- IC50 (second compound 0.003 µM): > 1000 nM
- IC50 (second compound 0.00949 µM): > 1000 nM
- IC50 (second compound 0.03 µM): > 1000 nM
- IC50 (second compound 0.0949 µM): > 1000 nM
- IC50 (second compound 0.3 µM): > 1000 nM
- viability, T/C [25]: 117%
- viability, T/C [26]: 82.4%
- viability, T/C [1]: 109%
- viability, T/C [2]: 101%
- viability, T/C [3]: 96.8%
- viability, T/C [4]: 101%
- viability, T/C [27]: 90.3%
- viability, T/C [28]: 105%
- viability, T/C [5]: 96.1%
- viability, T/C [6]: 86.7%
- viability, T/C [7]: 99.9%
- viability, T/C [8]: 82.2%
- viability, T/C [29]: 101%
- viability, T/C [30]: 97.1%
- viability, T/C [9]: 104%
- viability, T/C [10]: 98.9%
- viability, T/C [11]: 106%
- viability, T/C [12]: 80.7%
- viability, T/C [31]: 99%
- viability, T/C [32]: 110%
- viability, T/C [13]: 99.7%
- viability, T/C [14]: 102%
- viability, T/C [15]: 97.4%
- viability, T/C [16]: 82.3%
- viability, T/C [33]: 92.5%
- viability, T/C [34]: 110%
- viability, T/C [17]: 112%
- viability, T/C [18]: 112%
- viability, T/C [19]: 113%
- viability, T/C [20]: 102%
- viability, T/C [35]: 110%
- viability, T/C [36]: 94.3%
- viability, T/C [21]: 105%
- viability, T/C [22]: 109%
- viability, T/C [23]: 99.7%
- viability, T/C [24]: 90.5%

Structure (SMILES): O=C(c1ccc(F)c(F)c1Nc1ccc(I)cc1F)N1CC(O)([C@@H]2CCCCN2)C1 + CCn1c(-c2cc(N3CCN(C)CC3)cnc2C(C)OC)c2c3cc(ccc31)-c1csc(n1)CC(NC(=O)C1CC1C)C(=O)N1CCCC(N1)C(=O)OCC(C)(C)C2
- IC50 (second compound 0.000949 µM): < 3.16 nM
- IC50 (second compound 0.003 µM): < 3.16 nM
- IC50 (second compound 0.00949 µM): < 3.16 nM
- IC50 (second compound 0.03 µM): < 3.16 nM
- IC50 (second compound 0.0949 µM): < 3.16 nM
- IC50 (second compound 0.3 µM): < 3.16 nM
- viability, T/C [25]: 25.6%
- viability, T/C [26]: 15.3%
- viability, T/C [1]: 12.3%
- viability, T/C [2]: 7.55%
- viability, T/C [3]: 6.32%
- viability, T/C [4]: 4.06%
- viability, T/C [27]: 26.8%
- viability, T/C [28]: 17.7%
- viability, T/C [5]: 11%
- viability, T/C [6]: 7.55%
- viability, T/C [7]: 5.82%
- viability, T/C [8]: 4.4%
- viability, T/C [29]: 20%
- viability, T/C [30]: 7.54%
- viability, T/C [9]: 7.52%
- viability, T/C [10]: 5.46%
- viability, T/C [11]: 5.26%
- viability, T/C [12]: 4.12%
- viability, T/C [31]: 14.1%
- viability, T/C [32]: 8.8%
- viability, T/C [13]: 6.96%
- viability, T/C [14]: 5.38%
- viability, T/C [15]: 5.09%
- viability, T/C [16]: 4.3%
- viability, T/C [33]: 9.09%
- viability, T/C [34]: 6.88%
- viability, T/C [17]: 5.8%
- viability, T/C [18]: 5.07%
- viability, T/C [19]: 5.29%
- viability, T/C [20]: 4.24%
- viability, T/C [35]: 11.8%
- viability, T/C [36]: 7.65%
- viability, T/C [21]: 5.68%
- viability, T/C [22]: 5.13%
- viability, T/C [23]: 4.83%
- viability, T/C [24]: 4.09%

Structure (SMILES): Nc1ccn(C2OC(CO)C(O)C2(F)F)c(=O)n1 (stereo not drawn) + CCn1c(-c2cccnc2C(C)OC)c2c3cc(ccc31)N1CCOC(CC(NC(=O)C(C(C)C)N(C)C(=O)C3(F)CCN(C(=O)C#CC(C)(C)N(C)C)CC3)C(=O)N3CCCC(N3)C(=O)OCC(C)(C)C2)C1
- IC50 (second compound 0.000949 µM): < 3.16 nM
- IC50 (second compound 0.003 µM): < 3.16 nM
- IC50 (second compound 0.00949 µM): < 3.16 nM
- IC50 (second compound 0.03 µM): < 3.16 nM
- IC50 (second compound 0.0949 µM): < 3.16 nM
- IC50 (second compound 0.3 µM): < 3.16 nM
- viability, T/C [25]: 23.6%
- viability, T/C [26]: 7.06%
- viability, T/C [1]: 5.46%
- viability, T/C [2]: 4.18%
- viability, T/C [3]: 4.47%
- viability, T/C [4]: 3.97%
- viability, T/C [27]: 22%
- viability, T/C [28]: 6.17%
- viability, T/C [5]: 5.46%
- viability, T/C [6]: 5.26%
- viability, T/C [7]: 4.96%
- viability, T/C [8]: 4.2%
- viability, T/C [29]: 20.5%
- viability, T/C [30]: 8.01%
- viability, T/C [9]: 5.62%
- viability, T/C [10]: 4.89%
- viability, T/C [11]: 6.38%
- viability, T/C [12]: 3.73%
- viability, T/C [31]: 19.7%
- viability, T/C [32]: 6.08%
- viability, T/C [13]: 4.75%
- viability, T/C [14]: 5.13%
- viability, T/C [15]: 5.14%
- viability, T/C [16]: 3.58%
- viability, T/C [33]: 19.9%
- viability, T/C [34]: 7.64%
- viability, T/C [17]: 4.68%
- viability, T/C [18]: 4.96%
- viability, T/C [19]: 5.01%
- viability, T/C [20]: 4.01%
- viability, T/C [35]: 16.6%
- viability, T/C [36]: 6.52%
- viability, T/C [21]: 4.44%
- viability, T/C [22]: 4.51%
- viability, T/C [23]: 5.17%
- viability, T/C [24]: 3.99%
